Measured values published in patent US11964990B2, “1,3,4,7-tetrahydro-2H-pyrrolo[3′,2′:5,6]pyrido[2,3-b][1,4]oxazepine bcl-2 inhibitors” (AbbVie Inc., priority 2022, dated 2024).

Tests used:
RS4;11 cells = assay: Cell viability assay (CellTiter-Glo) in RS4;11 cell line; assay type: cell-based; conditions: 24 hours, 10% Human Serum, 50% decrease in cell viability
Excerpt: (§1) The acute lymphoblastic leukemia (ALL) human cell line RS4;11 (ATCC, Manassas VA) was used as the primary human cell line to assess the cellular activity of compound of the present Examples in vitro and their efficacy in vivo. BH3 profiling, a mitochondrial assay that classifies blocks in the intrinsic apoptotic pathway, has shown that RS4;11 cells were highly dependent on Bcl-2 protein for survival and were sensitive to a Bcl-2 inhibitor (Blood. 2008; 111(4):2300-2309). […] The acute lymphoblastic leukemia cell line Molt-4, which is derived from immature T-lymphoid cells (T-ALL), was used as a counter screen assay.
(§2) Frozen RS4;11 or Molt-4 cells (ATCC, Manassas, VA, USA) were thawed overnight in RPMI 1640 media (Thermo Fisher Scientific, Waltham, MA, USA) supplemented with 1% penicillin/streptomycin (Thermo Fisher Scientific, Waltham, MA, USA), and 10% Human Serum (Sigma, St. Louis, MO, USA). 3000 Cells (0.1×10^6/mL) were seeded in each well of 384-well plate and were treated for 24 hours in a humidified chamber with 5% CO2. Cell viability was determined by CellTiter-Glo as described by the manufacturer's instructions (Promega Corporation, Madison, WI, USA). Responses were determined as a percentage of the control treated cells and the effective concentration (EC50) to induce a 50% decrease in cell viability were determined from sigmoidal dose-response curves using Dotmatics (Dotmatics Software Company, Bishops Stortford, Hertfordshire, England).

Molt-4 cells = assay: Cell viability counter screen assay (CellTiter-Glo) in Molt-4 cells; assay type: cell-based; conditions: 24 hours, 10% Human Serum, 50% decrease in cell viability
Excerpt: as §1, §2

| Structure (SMILES) | EC50 (RS4;11 cells) | EC50 (Molt-4 cells) |
| --- | --- | --- |
| CC1(C)CC(c2ccc(Cl)cc2)=C2CN3CCN(c4ccc(C(=O)NS(=O)(=O)c5ccc(NC[C@H]6CC[C@H](N7CCOCC7)CC6)c([N+](=O)[O-])c5)c(N5CCCOc6nc7[nH]ccc7cc65)c4)C[C@H]3COCCCO[C@@H]2C1 [Example 28, 4-((4aS,10aR)-14-(4-chlorophenyl)-12,12-dimethyl-1,2,4a,5,8,9,10a,11,13,15-decahydro-7H,12H-benzo[f]pyrazino[2,1-c][1,8]dioxa[4]azacycloundecin-3(4H)-yl)-2-(3,4-dihydro-2H-pyrrolo[3′,2′:5,6]pyrido[2,3-h][1,4]oxazepin-1(7H)-yl)-N-((4-((((1r,4r)-4-morpholinocyclohexyl)methyl)amino)-3-nitrophenyl)sulfonyl)benzamide] | 0.862 nM | 274 nM |
| COC1CO[C@H](CNc2ccc(S(=O)(=O)NC(=O)c3ccc(N4CCN5CC6=C(c7ccc(Cl)cc7)CC(C)(C)C[C@H]6OCCCOC[C@@H]5C4)cc3N3CCCOc4nc5[nH]ccc5cc43)cc2[N+](=O)[O-])C1 (stereo partly drawn) [Example 29, 4-((4aS,10aR)-14-(4-chlorophenyl)-12,12-dimethyl-1,2,4a,5,8,9,10a,11,13,15-decahydro-7H,12H-benzo[f]pyrazino[2,1-c][1,8]dioxa[4]azacycloundecin-3(4H)-yl)-2-(3,4-dihydro-2H-pyrrolo[3′,2′:5,6]pyrido[2,3-b][1,4]oxazepin-1(7H)-yl)-N-((4-((((2S)-4-methoxytetrahydrofuran-2-yl)methyl)amino)-3-nitrophenyl)sulfonyl)benzamide] | 1.97 nM | 1890 nM |
| CO[C@H]1C[C@H](Nc2ccc(S(=O)(=O)NC(=O)c3ccc(N4CCN5CC6=C(c7ccc(Cl)cc7)CC(C)(C)C[C@H]6OCCCOC[C@@H]5C4)cc3N3CCCOc4nc5[nH]ccc5cc43)cc2[N+](=O)[O-])C1 [Example 30, 4-((4aS,10aR)-14-(4-chlorophenyl)-12,12-dimethyl-1,2,4a,5,8,9,10a,11,13,15-decahydro-7H,12H-benzo[f]pyrazino[2,1-c][1,8]dioxa[4]azacycloundecin-3(4H)-yl)-2-(3,4-dihydro-2H-pyrrolo[3′,2′:5,6]pyrido[2,3-b][1,4]oxazepin-1(7H)-yl)-N-((4-(((1r,3r)-3-methoxycyclobutyl)amino)-3-nitrophenyl)sulfonyl)benzamide] | 4.1 nM | > 10000 nM |
| CO[C@H]1CC[C@H](COc2ccc(S(=O)(=O)NC(=O)c3ccc(N4CCN5CC6=C(c7ccc(Cl)cc7)CC(C)(C)C[C@H]6OCCCOC[C@@H]5C4)cc3N3CCCOc4nc5[nH]ccc5cc43)cc2[N+](=O)[O-])OC1 [Example 33, 4-((4aS,10aR)-14-(4-chlorophenyl)-12,12-dimethyl-1,2,4a,5,8,9,10a,11,13,15-decahydro-7H,12H-benzo[f]pyrazino[2,1-c][1,8]dioxa[4]azacycloundecin-3(4H)-yl)-2-(3,4-dihydro-2H-pyrrolo[3′,2′:5,6]pyrido[2,3-b][1,4]oxazepin-1(7H)-yl)-N-((4-(((2R,5S)-5-methoxytetrahydro-2H-pyran-2-yl)methoxy)-3-nitrophenyl)sulfonyl)benzamide] | 3.49 nM | 6080 nM |
| CO[C@H]1CC[C@H](CNc2ccc(S(=O)(=O)NC(=O)c3ccc(N4CCN5CC6=C(c7ccc(Cl)cc7)CC(C)(C)C[C@H]6OCCCOC[C@@H]5C4)cc3N3CCCOc4nc5[nH]ccc5cc43)cc2Cl)OC1 [Example 34, N-((3-chloro-4-((((2R,5S)-5-methoxytetrahydro-2H-pyran-2-yl)methyl)amino)phenyl)sulfonyl)-4-((4aS,10aR)-14-(4-chlorophenyl)-12,12-dimethyl-1,2,4a,5,8,9,10a,11,13,15-decahydro-7H,12H-benzo[f]pyrazino[2,1-c][1,8]dioxa[4]azacycloundecin-3(4H)-yl)-2-(3,4-dihydro-2H-pyrrolo[3′,2′:5,6]pyrido[2,3-b][1,4]oxazepin-1(7H)-yl)benzamide] | 57.6 nM | > 10000 nM |
| COCCO[C@H]1CC[C@H](CNc2ccc(S(=O)(=O)NC(=O)c3ccc(N4CCN5CC6=C(c7ccc(Cl)cc7)CC(C)(C)C[C@H]6OCCCOC[C@@H]5C4)cc3N3CCCOc4nc5[nH]ccc5cc43)cc2[N+](=O)[O-])OC1 [Example 35, 4-((4aS,10aR)-14-(4-chlorophenyl)-12,12-dimethyl-1,2,4a,5,8,9,10a,11,13,15-decahydro-7H,12H-benzo[f]pyrazino[2,1-c][1,8]dioxa[4]azacycloundecin-3(4H)-yl)-2-(3,4-dihydro-2H-pyrrolo[3′,2′:5,6]pyrido[2,3-b][1,4]oxazepin-1(7H)-yl)-N-((4-((((2R,5S)-5-(2-methoxyethoxy)tetrahydro-2H-pyran-2-yl)methyl)amino)-3-nitrophenyl)sulfonyl)benzamide] | 1.47 nM | 1740 nM |

Further lines, with some results ahead:

| EC50 (RS4;11 cells) | Structure (SMILES) | EC50 (Molt-4 cells) |
| --- | --- | --- |
| 5.29 nM | C[C@H]1CC[C@H](CNc2ccc(S(=O)(=O)NC(=O)c3ccc(N4CCN5CC6=C(c7ccc(Cl)cc7)CC(C)(C)C[C@H]6OCCCOC[C@@H]5C4)cc3N3CCCOc4nc5[nH]ccc5cc43)cc2[N+](=O)[O-])OC1 [Example 23, 4-((4aS,10aR)-14-(4-chlorophenyl)-12,12-dimethyl-1,2,4a,5,8,9,10a,11,13,15-decahydro-7H,12H-benzo[f]pyrazino[2,1-c][1,8]dioxa[4]azacycloundecin-3(4H)-yl)-2-(3,4-dihydro-2H-pyrrolo[3′,2′:5,6]pyrido[2,3-h][1,4]oxazepin-1(7H)-yl)-N-((4-((((2R,5S)-5-methyltetrahydro-2H-pyran-2-yl)methyl)amino)-3-nitrophenyl)sulfonyl)benzamide] | > 10000 nM |
| 4.9 nM | CO[C@H]1C[C@@H](CNc2ccc(S(=O)(=O)NC(=O)c3ccc(N4CCN5CC6=C(c7ccc(Cl)cc7)CC(C)(C)C[C@H]6OCCCOC[C@@H]5C4)cc3N3CCCOc4nc5[nH]ccc5cc43)cc2[N+](=O)[O-])C1 [Example 24] | > 10000 nM |
| 4.38 nM | COC1(CNc2ccc(S(=O)(=O)NC(=O)c3ccc(N4CCN5CC6=C(c7ccc(Cl)cc7)CC(C)(C)C[C@H]6OCCCOC[C@@H]5C4)cc3N3CCCOc4nc5[nH]ccc5cc43)cc2[N+](=O)[O-])CCOCC1 [Example 26, 4-((4aS,10aR)-14-(4-chlorophenyl)-12,12-dimethyl-1,2,4a,5,8,9,10a,11,13,15-decahydro-7H,12H-benzo[f]pyrazino[2,1-c][1,8]dioxa[4]azacycloundecin-3(4H)-yl)-2-(3,4-dihydro-2H-pyrrolo[3′,2′:5,6]pyrido[2,3-b][1,4]oxazepin-1(7H)-yl)-N-((4-(((4-methoxytetrahydro-2H-pyran-4-yl)methyl)amino)-3-nitrophenyl)sulfonyl)benzamide] | > 10000 nM |
| 0.329 nM | CC1(C)CC(c2ccc(Cl)cc2)=C2CN3CCN(c4ccc(C(=O)NS(=O)(=O)c5ccc(NC[C@@H]6CC[C@@H](O)CO6)c([N+](=O)[O-])c5)c(N5CCCOc6nc7[nH]ccc7cc65)c4)C[C@H]3COCCCO[C@@H]2C1 [Example 27, 4-((4aS,10aR)-14-(4-chlorophenyl)-12,12-dimethyl-1,2,4a,5,8,9,10a,11,13,15-decahydro-7H,12H-benzo[f]pyrazino[2,1-c][1,8]dioxa[4]azacycloundecin-3(4H)-yl)-2-(3,4-dihydro-2H-pyrrolo[3′,2′:5,6]pyrido[2,3-h][1,4]oxazepin-1(7H)-yl)-N-((4-((((2S,5R)-5-hydroxytetrahydro-2H-pyran-2-yl)methyl)amino)-3-nitrophenyl)sulfonyl)benzamide] | 535 nM |
| 3.24 nM | CN1CCC(Nc2ccc(S(=O)(=O)NC(=O)c3ccc(N4CCN5CC6=C(c7ccc(Cl)cc7)CC(C)(C)C[C@H]6OCCCOC[C@@H]5C4)cc3N3CCCOc4nc5[nH]ccc5cc43)cc2[N+](=O)[O-])CC1 [Example 31, 4-((4aS,10aR)-14-(4-chlorophenyl)-12,12-dimethyl-1,2,4a,5,8,9,10a,11,13,15-decahydro-7H,12H-benzo[f]pyrazino[2,1-c][1,8]dioxa[4]azacycloundecin-3(4H)-yl)-2-(3,4-dihydro-2H-pyrrolo[3′,2′:5,6]pyrido[2,3-b][1,4]oxazepin-1(7H)-yl)-N-((4-((1-methylpiperidin-4-yl)amino)-3-nitrophenyl)sulfonyl)benzamide] | 1220 nM |
| 1.67 nM | CC1(C)CC(c2ccc(Cl)cc2)=C2CN3CCN(c4ccc(C(=O)NS(=O)(=O)c5ccc(NC[C@H]6CC[C@](C)(O)CC6)c([N+](=O)[O-])c5)c(N5CCCOc6nc7[nH]ccc7cc65)c4)C[C@H]3COCCCO[C@@H]2C1 [Example 32, 4-((4aS,10aR)-14-(4-chlorophenyl)-12,12-dimethyl-1,2,4a,5,8,9,10a,11,13,15-decahydro-7H,12H-benzo[f]pyrazino[2,1-c][1,8]dioxa[4]azacycloundecin-3(4H)-yl)-2-(3,4-dihydro-2H-pyrrolo[3′,2′:5,6]pyrido[2,3-b][1,4]oxazepin-1(7H)-yl)-N-((4-((((1r,4r)-4-hydroxy-4-methylcyclohexyl)methyl)amino)-3-nitrophenyl)sulfonyl)benzamide] | 9570 nM |
